# Data: ChEMBL document CHEMBL3885861, “Open TG-GATES”
# Species: Rattus norvegicus
# Experiment: Open TG-GATES - Regimen: Daily Repeat
# Assay type: toxicity, organism-based, Sprague-Dawley
# Design: regimen Daily Repeat, gender Male, age 6 weeks
# Details: in vivo, po, 0 mg/kg, route gavage, dose level Control; for APTT / Bas / Eos / Fbg / Hb / Ht / Lym / MCH / MCHC / MCV / Mono / Neu / PT / Plat / RBC / Ret / WBC: tissue Blood; for KIDNEY_L / KIDNEY_R / KIDNEY_TOTAL: tissue Kidney; for LIVER: tissue Liver; for A/G / ALP / ALT / AST / BUN / CRE / Ca / Cl / DBIL / GLC / IP / K / LDH / Na / PL / RALB / TBIL / TC / TG / TP / gamma-GTP: tissue Plasma
smiles,measurement,setting,value
COc1ccc(Cl)cc1C(=O)NCCc1ccc(S(=O)(=O)NC(=O)NC2CCCCC2)cc1 [GLYBURIDE],TERMINAL_BW,"72 h, time 3 day",234.5 g
same,APTT,"72 h, time 3 day",19.1 s
same,Bas,"72 h, time 3 day",0%
same,Eos,"72 h, time 3 day",0.8%
same,Fbg,"72 h, time 3 day",225.4 mg/dL
same,Hb,"72 h, time 3 day",13.3 g/dL
same,Ht,"72 h, time 3 day",39.9%
same,Lym,"72 h, time 3 day",81.6%
same,MCH,"72 h, time 3 day",21.1 pg
same,MCHC,"72 h, time 3 day",33.2%
same,MCV,"72 h, time 3 day",63.5 fL
same,Mono,"72 h, time 3 day",2.6%
same,Neu,"72 h, time 3 day",14.6%
same,PT,"72 h, time 3 day",12.1 s
same,Plat,"72 h, time 3 day",124.6 x10_4/uL
same,RBC,"72 h, time 3 day",628.4 x10_4/ul
same,Ret,"72 h, time 3 day",6.8%
same,WBC,"72 h, time 3 day",86.4 x10_2/uL
same,KIDNEY_L,"72 h, time 3 day",1 g
same,KIDNEY_R,"72 h, time 3 day",1 g
same,KIDNEY_TOTAL,"72 h, time 3 day",2 g
same,LIVER,"72 h, time 3 day",11.7 g
same,A/G,"72 h, time 3 day",1.7
same,ALP,"72 h, time 3 day",939.6 IU/L
same,ALT,"72 h, time 3 day",43.2 IU/L
same,AST,"72 h, time 3 day",66.4 IU/L
same,BUN,"72 h, time 3 day",15.2 mg/dL
same,CRE,"72 h, time 3 day",0.4 mg/dL
same,Ca,"72 h, time 3 day",10.9 mg/dL
same,Cl,"72 h, time 3 day",102.4 meq/L
same,DBIL,"72 h, time 3 day",0.1 mg/dL
same,GLC,"72 h, time 3 day",207 mg/dL
same,IP,"72 h, time 3 day",7.4 mg/dL
same,K,"72 h, time 3 day",4.2 meq/L
same,LDH,"72 h, time 3 day",159.2 IU/L
same,Na,"72 h, time 3 day",141 meq/L
same,PL,"72 h, time 3 day",160.2 mg/dL
same,RALB,"72 h, time 3 day",3.5 g/dL
same,TBIL,"72 h, time 3 day",0.2 mg/dL
same,TC,"72 h, time 3 day",86 mg/dL
same,TG,"72 h, time 3 day",92.6 mg/dL
same,TP,"72 h, time 3 day",5.6 g/dL
same,gamma-GTP,"72 h, time 3 day",1.4 IU/L
same,TERMINAL_BW,"[…], time 7 day",268.9 g
same,TERMINAL_BW,"[…], time 14 day",320.1 g
same,TERMINAL_BW,"[…], time 28 day",406.6 g
same,APTT,"[…], time 7 day",18.2 s
same,Bas,"[…], time 7 day",0%
same,Eos,"[…], time 7 day",0.8%
same,Fbg,"[…], time 7 day",217.8 mg/dL
same,Hb,"[…], time 7 day",13.7 g/dL
same,Ht,"[…], time 7 day",40.6%
same,Lym,"[…], time 7 day",79.8%
same,MCH,"[…], time 7 day",21.2 pg
same,MCHC,"[…], time 7 day",33.7%
same,MCV,"[…], time 7 day",63 fL
same,Mono,"[…], time 7 day",2.8%
same,Neu,"[…], time 7 day",16.2%
same,PT,"[…], time 7 day",12.4 s
same,Plat,"[…], time 7 day",121.3 x10_4/uL
same,RBC,"[…], time 7 day",644.2 x10_4/ul
same,Ret,"[…], time 7 day",5.5%
same,WBC,"[…], time 7 day",115 x10_2/uL
same,APTT,"[…], time 14 day",21.1 s
same,Bas,"[…], time 14 day",0%
same,Eos,"[…], time 14 day",0.6%
same,Fbg,"[…], time 14 day",223.6 mg/dL
same,Hb,"[…], time 14 day",14.1 g/dL
same,Ht,"[…], time 14 day",41%
same,Lym,"[…], time 14 day",79.8%
same,MCH,"[…], time 14 day",20.1 pg
same,MCHC,"[…], time 14 day",34.3%
same,MCV,"[…], time 14 day",58.5 fL
same,Mono,"[…], time 14 day",2.6%
same,Neu,"[…], time 14 day",16.4%
same,PT,"[…], time 14 day",12.2 s
same,Plat,"[…], time 14 day",122.3 x10_4/uL
same,RBC,"[…], time 14 day",701 x10_4/ul
same,Ret,"[…], time 14 day",4.3%
same,WBC,"[…], time 14 day",124.8 x10_2/uL
same,APTT,"[…], time 28 day",19.9 s
same,Bas,"[…], time 28 day",0%
same,Eos,"[…], time 28 day",1%
same,Fbg,"[…], time 28 day",211 mg/dL
same,Hb,"[…], time 28 day",15.1 g/dL
same,Ht,"[…], time 28 day",43.1%
same,Lym,"[…], time 28 day",83.8%
same,MCH,"[…], time 28 day",20.1 pg
same,MCHC,"[…], time 28 day",35.1%
same,MCV,"[…], time 28 day",57.2 fL
same,Mono,"[…], time 28 day",2%
same,Neu,"[…], time 28 day",12.8%
same,PT,"[…], time 28 day",12.3 s
same,Plat,"[…], time 28 day",100.6 x10_4/uL
same,RBC,"[…], time 28 day",753.2 x10_4/ul
same,Ret,"[…], time 28 day",2.8%
same,WBC,"[…], time 28 day",133.4 x10_2/uL
same,KIDNEY_L,"[…], time 7 day",1.2 g
same,KIDNEY_R,"[…], time 7 day",1.2 g
same,KIDNEY_TOTAL,"[…], time 7 day",2.3 g
same,KIDNEY_L,"[…], time 14 day",1.2 g
same,KIDNEY_R,"[…], time 14 day",1.3 g
same,KIDNEY_TOTAL,"[…], time 14 day",2.5 g
same,KIDNEY_L,"[…], time 28 day",1.3 g
same,KIDNEY_R,"[…], time 28 day",1.4 g
same,KIDNEY_TOTAL,"[…], time 28 day",2.7 g
same,LIVER,"[…], time 7 day",12.7 g
same,LIVER,"[…], time 14 day",14 g
same,LIVER,"[…], time 28 day",17.3 g
same,A/G,"[…], time 7 day",1.5
same,ALP,"[…], time 7 day",926.8 IU/L
same,ALT,"[…], time 7 day",36.6 IU/L
same,AST,"[…], time 7 day",59.8 IU/L
same,BUN,"[…], time 7 day",16.8 mg/dL
same,CRE,"[…], time 7 day",0.4 mg/dL
same,Ca,"[…], time 7 day",10.8 mg/dL
same,Cl,"[…], time 7 day",102.8 meq/L
same,DBIL,"[…], time 7 day",0.1 mg/dL
same,GLC,"[…], time 7 day",217 mg/dL
same,IP,"[…], time 7 day",7.3 mg/dL
same,K,"[…], time 7 day",3.9 meq/L
same,LDH,"[…], time 7 day",129.6 IU/L
same,Na,"[…], time 7 day",141.6 meq/L
same,PL,"[…], time 7 day",152 mg/dL
same,RALB,"[…], time 7 day",3.3 g/dL
same,TBIL,"[…], time 7 day",0.2 mg/dL
same,TC,"[…], time 7 day",71.6 mg/dL
same,TG,"[…], time 7 day",128.2 mg/dL
same,TP,"[…], time 7 day",5.5 g/dL
same,gamma-GTP,"[…], time 7 day",1 IU/L
same,A/G,"[…], time 14 day",1.5
same,ALP,"[…], time 14 day",785.6 IU/L
same,ALT,"[…], time 14 day",36.2 IU/L
same,AST,"[…], time 14 day",62.6 IU/L
same,BUN,"[…], time 14 day",14 mg/dL
same,CRE,"[…], time 14 day",0.5 mg/dL
same,Ca,"[…], time 14 day",10.7 mg/dL
same,Cl,"[…], time 14 day",102.6 meq/L
same,DBIL,"[…], time 14 day",0.1 mg/dL
same,GLC,"[…], time 14 day",199.8 mg/dL
same,IP,"[…], time 14 day",6.6 mg/dL
same,K,"[…], time 14 day",4 meq/L
same,LDH,"[…], time 14 day",154.6 IU/L
same,Na,"[…], time 14 day",140.4 meq/L
same,PL,"[…], time 14 day",155.2 mg/dL
same,RALB,"[…], time 14 day",3.6 g/dL
same,TBIL,"[…], time 14 day",0.2 mg/dL
same,TC,"[…], time 14 day",74.6 mg/dL
same,TG,"[…], time 14 day",104.8 mg/dL
same,TP,"[…], time 14 day",6 g/dL
same,gamma-GTP,"[…], time 14 day",1.2 IU/L
same,A/G,"[…], time 28 day",1.5
same,ALP,"[…], time 28 day",561.8 IU/L
same,ALT,"[…], time 28 day",31.4 IU/L
same,AST,"[…], time 28 day",60 IU/L
same,BUN,"[…], time 28 day",16.8 mg/dL
same,CRE,"[…], time 28 day",0.5 mg/dL
same,Ca,"[…], time 28 day",10.5 mg/dL
same,Cl,"[…], time 28 day",103.8 meq/L
same,DBIL,"[…], time 28 day",0.1 mg/dL
same,GLC,"[…], time 28 day",214 mg/dL
same,IP,"[…], time 28 day",6.6 mg/dL
same,K,"[…], time 28 day",3.9 meq/L
same,LDH,"[…], time 28 day",143.2 IU/L
same,Na,"[…], time 28 day",141.2 meq/L
same,PL,"[…], time 28 day",143.8 mg/dL
same,RALB,"[…], time 28 day",3.5 g/dL
same,TBIL,"[…], time 28 day",0.2 mg/dL
same,TC,"[…], time 28 day",75.4 mg/dL
same,TG,"[…], time 28 day",91.2 mg/dL
same,TP,"[…], time 28 day",5.9 g/dL
same,gamma-GTP,"[…], time 28 day",0.8 IU/L
